From patent publication US10787430B2, “Hemoglobin modifier compounds and uses thereof” (FronThera U.S. Pharmaceuticals LLC, priority 2016, dated 2020)

Molecular target: T1, hemoglobin (20% hct blood) (Homo sapiens, UniProt P68871+P69905)
T1 construct: Normal whole blood was collected from adult healthy donors; from tissue; host or cells: normal human whole blood (red blood cells), adult healthy donors
Experiment: Dose-dependent whole blood OEC studies
Format: cell-based
Conditions: 37° C., 1 hr; for delta p50 0.2 mM: 0.2 mM compound; for delta p50 0.5 mM: 0.5 mM compound
Protocol: Materials: Normal whole blood was collected from adult healthy donors at the Virginia Commonwealth University after informed consent. The use of these human samples is in accordance with regulations of the IRB for Protection of Human Subjects. Compounds (50 mM-100 mM concentration in DMSO) were stored at 15° C. or room temperature until use.
To 2 ml 20% hct blood, 0.2 or 0.5 or 1 mM compound was added and kept shaking at 37° C. for 1 hr. OEC analysis was performed as described above to determine partial pressure of oxygen (pO2) and Hb oxygen saturation values (sO2). A control without compound but containing equivalent amount of DMSO was performed (1%). GBT440 was used as a positive control. Table 2 below lists the delta p50% values.

T1 sequence (P69905 2-142 limits assumed): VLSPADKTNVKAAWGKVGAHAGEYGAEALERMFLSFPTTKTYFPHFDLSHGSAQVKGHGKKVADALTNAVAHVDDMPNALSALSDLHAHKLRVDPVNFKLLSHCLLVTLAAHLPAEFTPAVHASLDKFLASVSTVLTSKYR
T1 sequence (P68871 2-147 limits assumed): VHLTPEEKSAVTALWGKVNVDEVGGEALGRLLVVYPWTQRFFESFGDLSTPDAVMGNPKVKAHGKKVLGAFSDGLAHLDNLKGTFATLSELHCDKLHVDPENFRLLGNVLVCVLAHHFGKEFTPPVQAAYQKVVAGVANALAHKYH

Structure (SMILES)	delta p50 0.2 mM	delta p50 0.5 mM
CC(C)n1nccc1-c1ncccc1COc1ccc2nnsc2c1C=O [Example 18, 6-((2-(1-isopropyl-1H-pyrazol-5-yl)pyridin-3-yl)methoxy)benzo[d][1,2,3]thiadiazole-7-carbaldehyde]	−2.80%	−8.10%
[2H]C([2H])(Oc1ccc2ncoc2c1C=O)c1cncnc1-n1ccnc1C(C)C [Example 43, 6-((4-(2-isopropyl-1H-imidazol-1-yl)pyrimidin-5-yl)methoxy-d2)benzo[d]oxazole-7-carbaldehyde]	−9.90%	−28.10%
CC(C)n1nccc1-c1ncccc1COc1ccc2ncsc2c1C=O [Example 12, 6-((2-(1-isopropyl-1H-pyrazol-5-yl)pyridin-3-yl)methoxy)benzo[d]thiazole-7-carbaldehyde]	−26.60%	−58.40%
[2H]C([2H])(Oc1ccc2ncoc2c1C=O)c1cccnc1-c1ccnn1C(C)C [Example 28, 6-((2-(1-isopropyl-1H-pyrazol-5-yl)pyridin-3-yl)methoxy-d2)benzo[d]oxazole-7-carbaldehyde]	−11.90%	−40.70%
[2H]C([2H])([2H])C(n1nccc1-c1ncccc1COc1cc(F)cc(O)c1C=O)C([2H])([2H])[2H] [Example 31, 4-fluoro-2-hydroxy-6-((2-(1-(propan-2-yl-1,1,1,3,3,3-d6)-1H-pyrazol-5-yl)pyridin-3-yl)methoxy)benzaldehyde]	−9.80%	−36.10%
[2H]C([2H])(Oc1cccc(O)c1C=O)c1cccnc1-n1ccnc1C1CC1 [Example 45, 2-((2-(2-cyclopropyl-1H-imidazol-1-yl)pyridin-3-yl)methoxy-d2)-6-hydroxybenzaldehyde]	−10%	−29.80%
[2H]C(C)(C)n1nccc1-c1nccnc1COc1cccc(O)c1C=O [Example 51, 2-hydroxy-6-((3-(1-(propan-2-yl-2-d)-1H-pyrazol-5-yl)pyrazin-2-yl)methoxy)benzaldehyde]	−13.10%	−36.40%
[2H]C(C)(C)n1nccc1-c1ncccc1COc1cccc(O)c1C=O [Example 48, 2-hydroxy-6-((2-(1-(propan-2-yl-2-d)-1H-pyrazol-5-yl)pyridin-3-yl)methoxy)benzaldehyde]	−11%	−38.10%
[2H]C([2H])([2H])C(n1nccc1-c1ncncc1COc1cc(F)cc(O)c1C=O)C([2H])([2H])[2H] [Example 36, 4-fluoro-2-hydroxy-6-((4-(1-(propan-2-yl-1,1,1,3,3,3-d6)-1H-pyrazol-5-yl)pyrimidin-5-yl)methoxy)benzaldehyde]	−9.30%	−14%
[2H]C([2H])([2H])C(n1nccc1-c1ncccc1COc1ccc2ncoc2c1C=O)C([2H])([2H])[2H] [Example 33, 6-((2-(1-(propan-2-yl-1,1,1,3,3,3-d6)-1H-pyrazol-5-yl)pyridin-3-yl)methoxy)benzo[d]oxazole-7-carbaldehyde]	−12.70%	−39.70%
CC(C)n1nccc1-c1ncccc1COc1ccc2scnc2c1C=O [Example 16, 5-((2-(1-isopropyl-1H-pyrazol-5-yl)pyridin-3-yl)methoxy)benzo[d]thiazole-4-carbaldehyde]	−8.90%	−14.70%
[2H]C([2H])(Oc1cccc(O)c1C=O)c1c(F)ccnc1-c1ccnn1C(C)C [Example 75, 2-((4-fluoro-2-(1-isopropyl-1H-pyrazol-5-yl)pyridin-3-yl)methoxy-d2)-6-hydroxybenzaldehyde]	−13.0%	−53.7%
Cc1nc(COc2cccc(O)c2C=O)c(-c2ccnn2C(C)C)o1 [Example 68, 2-hydroxy-6-((5-(1-isopropyl-1H-pyrazol-5-yl)-2-methyloxazol-4-yl)methoxy)benzaldehyde]	−8.70%	−13.00%
[2H]C([2H])(Oc1cc(F)cc(O)c1C=O)c1cncnc1-n1ccnc1C(C)C [Example 44, 4-fluoro-2-hydroxy-6-((4-(2-isopropyl-1H-imidazol-1-yl)pyrimidin-5-yl)methoxy-d2)benzaldehyde]	−6.90%	−22.10%

Results, then the molecule that gave them:

delta p50 0.2 mM	delta p50 0.5 mM	Structure (SMILES)
−14.40%	−30.20%	[2H]C([2H])(Oc1cccc(O)c1C=O)c1cncnc1-c1c(F)cnn1C(C)C [Example 41, 2-((4-(4-fluoro-1-isopropyl-1H-pyrazol-5-yl)pyrimidin-5-yl)methoxy-d2)-6-hydroxybenzaldehyde]
−12.20%	−29.30%	[2H]C([2H])(Oc1cc(F)cc(O)c1C=O)c1cncnc1-c1ccnn1C(C)C [Example 39, 4-fluoro-2-hydroxy-6-((4-(1-isopropyl-1H-pyrazol-5-yl)pyrimidin-5-yl)methoxy-d2)benzaldehyde]
−10.00%	−31.00%	CC(C)n1nccc1-c1scnc1COc1cccc(O)c1C=O [Example 64, 2-hydroxy-6-((5-(1-isopropyl-1H-pyrazol-5-yl)thiazol-4-yl)methoxy)benzaldehyde]
−10.40%	−21.90%	Cc1nc(-c2ccnn2C(C)C)c(COc2cccc(O)c2C=O)s1 [Example 70, 2-hydroxy-6-((4-(1-isopropyl-1H-pyrazol-5-yl)-2-methylthiazol-5-yl)methoxy)benzaldehyde]
−16.20%	−46.10%	[2H]C([2H])([2H])C(n1nccc1-c1ncncc1COc1cccc(O)c1C=O)C([2H])([2H])[2H] [Example 37, 2-hydroxy-6-((4-(1-(propan-2-yl-1,1,1,3,3,3-d6)-1H-pyrazol-5-yl)pyrimidin-5-yl)methoxy)benzaldehyde]
−20.50%	−37.80%	CC(C)n1nccc1-c1ncncc1COc1ccc2ncsc2c1C=O [Example 53, 6-((4-(1-isopropyl-1H-pyrazol-5-yl)pyrimidin-5-yl)methoxy)benzo[d]thiazole-7-carbaldehyde]
−5.30%	−8.80%	CC(C)n1nccc1-c1ncncc1COc1ccc2cccnc2c1C=O [Example 55, 7-((4-(1-isopropyl-1H-pyrazol-5-yl)pyrimidin-5-yl)methoxy)quinoline-8-carbaldehyde]
−6.50%	−10.00%	[2H]C([2H])([2H])C(n1ncc(F)c1-c1ncncc1COc1cc(F)cc(O)c1C=O)C([2H])([2H])[2H] [Example 34, 4-fluoro-2-((4-(4-fluoro-1-(propan-2-yl-1,1,1,3,3,3-d6)-1H-pyrazol-5-yl)pyrimidin-5-yl)methoxy)-6-hydroxybenzaldehyde]
−10.30%	−29.80%	[2H]C([2H])([2H])C(n1ncc(F)c1-c1ncncc1COc1cccc(O)c1C=O)C([2H])([2H])[2H] [Example 35, 2-((4-(4-fluoro-1-(propan-2-yl-1,1,1,3,3,3-d6)-1H-pyrazol-5-yl)pyrimidin-5-yl)methoxy)-6-hydroxybenzaldehyde]
−5.70%	−16.50%	CC(C)n1nccc1-c1ocnc1COc1cccc(O)c1C=O [Example 66, 2-hydroxy-6-((5-(1-isopropyl-1H-pyrazol-5-yl)oxazol-4-yl)methoxy)benzaldehyde]
−7.00%	−15.20%	CC(C)n1nccc1-c1c(COc2cccc(O)c2C=O)ncn1C [Example 63, 2-hydroxy-6-((5-(1-isopropyl-1H-pyrazol-5-yl)-1-methyl-1H-imidazol-4-yl)methoxy)benzaldehyde]
−4.90%	−7.60%	CC(C)n1ncc(F)c1-c1ncncc1COc1cccc(O)c1C=O [Example 57, 2-((4-(4-fluoro-1-isopropyl-1H-pyrazol-5-yl)pyrimidin-5-yl)methoxy)-6-hydroxybenzaldehyde]
−11.20%	−36.20%	CC(C)n1nccc1-c1ncsc1COc1cccc(O)c1C=O [Example 65, 2-hydroxy-6-((4-(1-isopropyl-1H-pyrazol-5-yl)thiazol-5-yl)methoxy)benzaldehyde]
−6%	−12%	[2H]C([2H])(Oc1ccc(F)c(O)c1C=O)c1cncnc1-c1ccnn1C(C)C [Example 40, 3-fluoro-2-hydroxy-6-((4-(1-isopropyl-1H-pyrazol-5-yl)pyrimidin-5-yl)methoxy-d2)benzaldehyde]
−10.20%	−23.10%	[2H]C([2H])(Oc1cccc(O)c1C=O)c1cncnc1-n1ccnc1C(C)C [Example 42, 2-hydroxy-6-((4-(2-isopropyl-1H-imidazol-1-yl)pyrimidin-5-yl)methoxy-d2)benzaldehyde]
−12.70%	−39.20%	[2H]C([2H])([2H])C(n1ncc(F)c1-c1ncccc1COc1cccc(O)c1C=O)C([2H])([2H])[2H] [Example 32, 2-((2-(4-fluoro-1-(propan-2-yl-1,1,1,3,3,3-d6)-1H-pyrazol-5-yl)pyridin-3-yl)methoxy)-6-hydroxybenzaldehyde]
−14.30%	−36.10%	[2H]C([2H])(Oc1cccc(O)c1C=O)c1cccnc1-c1c(F)cnn1C(C)C [Example 25, 2-((2-(4-fluoro-1-isopropyl-1H-pyrazol-5-yl)pyridin-3-yl)methoxy-d2)-6-hydroxybenzaldehyde]
